# Tested on: active oxygen responsive calcium channel (TPC1 channel) of tobacco BY-2 cells
# Assay: aequorin luminescence of tobacco BY-2 culture cells after adding reaction water (evaluation of redox activity)
# Assay type: cell-based
# Conditions: for suppression of the aequorin luminescence reaction induced by water containing active oxygen species: agent added to the reaction, FIG. 11
# Description: In a living organism, Ca^2+ is a signal-transmitting substance which becomes a key in an information transmission path which controls metabolism and gene expression. Usually, a concentration of cytoplasm free calcium ion (hereinafter abbreviated as [Ca^2+]cyt) in live cell is maintained at low concentration and with a difference of 10^6 to 10^7 times compared to extracellular cytoplasm free calcium ion. On a cell membranes of living organisms including plants, calcium channels which constitute calcium inflow paths which are activated and open in response to a specific stimulus exist. The presence of most of calcium channels is elucidated at a gene level or at a protein level. […] As a method of nondestructively measuring the behavior of Ca^2+ in the cell, particularly, a change of [Ca^2+]cyt, a method of monitoring the change of [Ca^2+]cyt in response to various stimulations using cells to which gene of aequorin which is Ca^2+ responsive photoprotein derived from Aequorea Victoria is established. Due to this method, it is possible to monitor the change of [Ca^2+]cyt real time by observing bioluminescence. Accordingly, it is possible to determine whether or not water is turned into water having redox reaction in which the redox action is actually generated and the intracellular response is brought about. […] By evaluating effect of addition of aluminum as an ion channel blocker and effects of an active oxygen removing agent, it is possible to determine whether or not a specific active oxygen responsive calcium channel is stimulated (Kawano, T., Kadono, T., Fumoto, […]., Kuse, M. Isobe, M. Furuichi, T. and Muto, S. (2004) Aluminum as a specific inhibitor of plant TPC1 Ca^2+ channels. Biochemical and Biophysical Research Communications 324 (1): 40-45). Accordingly, by using the experimental system, it is possible to evaluate whether or not active oxygen species are present at a level where active oxygen species can stimulate calcium information transmission which is a key of various physiological action including the cell death or the gene expression in the plant cell. […] 100 ml of water having redox activity is added to 500 ml of suspension of cells in which aequorin is expressed (1:5 mixture, 600 ml in total), and CLA chemiluminescence and aequorin luminescence are measured. The luminescence intensity is marked as relative luminescence intensity (rlu). […]
SMILES,"concentration of superoxide anion radicals needed for water to have redox activity (intracellular response) (comparison of dissolved oxygen 8 mg/L and 30 mg/L samples, UV plus ultrasonic vibrations, FIG. 12)",suppression of the aequorin luminescence reaction induced by water containing active oxygen species
[O]O [superoxide anion radicals],at least 5 mM,–
O=S(=O)(O)c1cc(O)c(O)c(S(=O)(=O)O)c1 [Tiron],–,suppressed
[La+3] [La^3+],–,suppressed
[Al+3] [Al^3+],–,suppressed

# Source: patent US8889075B2, “Apparatus for producing water having redox activity” (Kitakyushu Foundation for the Advancement of Industry, …, priority 2007, dated 2014)
